Source: US8815241B2, “Use of combination of anti-angiogenic substance and c-kit kinase inhibitor” (Eisai R&D Management Co., Ltd., priority 2005, dated 2014)

Test system: Human gastrointestinal stromal tumor cell line GIST882
Assay: Human cancer cell line subcutaneous xenograft model (GIST882 in nude mouse), combined use
Format: in vivo
Details: once a day, for two weeks, orally
Protocol: Human gastrointestinal stromal tumor cell line GIST882 (supplied by The Brigham and Women's Hospital, Inc.) was cultured in RPMI1640 (containing 10% FBS) in a 5% carbon dioxide incubator to about 80% confluence. Following cultivation, each cell was collected by trypsin-EDTA treatment according to a general method. Using a phosphate buffer containing 50% matrigel, 5×10^7 cells/mL suspension was prepared, and 0.2 mL each of the resulting cell suspension was subcutaneously transplanted into the flank of a nude mouse. Starting from twenty-one days after the transplantation, 4-(3-chloro-4-(cyclopropylaminocarbonyl)aminophenoxy)-7-methoxy-6-quinolinecarboxamide (10 mg/kg or 30 mg/kg, once a day, for two weeks) and imatinib (160 mg/kg, twice a day, for two weeks) were orally administered alone or in combination. […] Tumor Volume (TV)=Major axis of tumor (mm)×(Minor axis of tumor)^2 (mm^2)/2 Relative Tumor Volume (RTV)=Tumor volume on measurement day/Tumor volume on the first administration day

With `COc1cc2nccc(Oc3ccc(NC(=O)NC4CC4)c(Cl)c3)c2cc1C(N)=O` [Compound A, 4-(3-chloro-4-(cyclopropylaminocarbonyl)aminophenoxy)-7-methoxy-6-quinolinecarboxamide] the “Relative tumor volume on Day 15, Average ± standard deviation” value (Compound A 10 mg/kg alone) was 2.06 ± 0.16 and the “Relative tumor volume on Day 15, Average ± standard deviation” value (Compound A 30 mg/kg alone) was 1.36 ± 0.13.
